# Columns and labels:
# [1] = system: p53 wild type or p53 mutant cells; assay: Q-RT-PCR of doxorubicin induced p21 and CD80 mRNA; assay type: cell-based, human; conditions: set of p53 wild type or p53 mutant cells, FIG. 14
# Method: Tumors were isolated from Kras^LA2/+; Trp53^LSL/LSL; Rosa26^CreERT2 animals, dissociated with collagenase and trypsin for one hour at 37° C., and then grown in DME plus 10% fetal bovine serum. Human cell lines were obtained from American Type Culture Collection and grown per manufacturer recommendations.
# RNA was isolated from cultured cells with Trizol reagent following manufacturer protocol. Complementary DNA was generated from 1 μg total RNA using High Capacity RT-PCR Kit (Roche, quantitative PCR (Q-RT-PCR)) following manufacturer protocol. Total cDNA was diluted 20 fold in H2O and 10 μL was used in a SYBR green quantitative PCR reaction. Specifically, specific primers were diluted from 100 μM stocks to a final concentration of 0.25 μM into JumpStart Ready Taq SYBR green (Sigma) and 10 μL was mixed with 10 μL diluted cDNA and cycled 40 times with the following cycling parameters on a Step One Plus (Applied Biosystems) real-time thermocycler: […]
# [2] = system: CD80 cell surface expression; assay: Flow cytometry of CD80 cell surface expression; assay type: cell-based, mouse; conditions: cells untreated, treated with tamoxifen, AdFlpO or AdCre; FIG. 11
# Method: Tumors were isolated from Kras^LA2/+; Trp53^LSL/LSL; Rosa26^CreERT2 animals, dissociated with collagenase and trypsin for one hour at 37° C., and then grown in DME plus 10% fetal bovine serum. Human cell lines were obtained from American Type Culture Collection and grown per manufacturer recommendations. Cells were harvested from plasticware using 2 mM EDTA solution. Approximately 1 […] cells were resuspended in % FBS in PBS and incubated with APC conjugated CD80 Ab at a 1:100 dilution (Hamster IgG2 Clone:16-10A1 from BD Biosciences). Cells were scanner on a FASCaliber flow cytometer (BD Biosciences).
Compound,induction of p21 as measured by Q-RT-PCR [1],induction of CD80 as measured by Q-RT-PCR ([1]; induction of human CD80 mirrors p21 induction),CD80 cell surface expression (flow cytometry histograms) [2]
COc1cccc2c1C(=O)c1c(O)c3c(c(O)c1C2=O)C[C@@](O)(C(=O)CO)C[C@@H]3O[C@H]1C[C@H](N)[C@H](O)[C@H](C)O1 [doxorubicin],induced,induced,
CC/C(=C(\c1ccccc1)c1ccc(OCCN(C)C)cc1)c1ccccc1 [tamoxifen],,,not tamoxifen dependent

# Reference: patent publication US9567642B2, “Methods and products related to targeted cancer therapy” (Massachusetts Institute of Technology, priority 2012, dated 2017)
